e = 2'-O-(2-methoxyethyl) (MOE); d = 2'-deoxy (DNA)
Key:
Format in all cases: in vivo, mouse
[1] = test system: intrinsic pathway of blood coagulation; experiment: Activated Partial Thromboplastin Time (aPTT) in platelet poor plasma of treated BALB/c mice
Experimental: Prothrombin Time (PT) and Activated Partial Thromboplastin Time (aPTT) were measured using platelet poor plasma (PPP) from mice treated with ISIS 403102. PT and aPTT values provided in Table 20 are reported as International Normalized Ratio (INR) values. INR values for PT and aPTT were determined by dividing the PT or aPTT value for the experimental group by the PT or aPTT for the PBS treated group. This ratio was then raised to the power of the International Sensitivity Index (ISI) of the tissue factor used.
Prothrombin Time (PT) and Activated Partial Thromboplastin Time (aPTT) were measured using platelet poor plasma (PPP) from mice treated with ISIS 403102. PT and aPTT values provided in Table 22 are reported as International Normalized Ratio (INR) values. INR values for PT and aPTT were determined by dividing the PT or aPTT value for the experimental group (i.e. 50 mg/kg treatment with ISIS 403102) by the PT or aPTT for the PBS treated group. This ratio was then raised to the power of the International Sensitivity Index (ISI) of the tissue factor used.
Prothrombin Time (PT) and Activated Partial Thromboplastin Time (aPTT) were measured using platelet poor plasma (PPP) from mice treated with ISIS 403102. PT and aPTT values provided in Table 24 are reported as International Normalized Ratio (INR) values. INR values for PT and aPTT were determined by dividing the PT or aPTT value for the experimental group (i.e. 50 mg/kg treatment with ISIS 403102) by the PT or aPTT for the PBS treated group. This ratio was then raised to the power of the International Sensitivity Index (ISI) of the tissue factor used.

murine Factor 7 protein = experiment: Plasma Factor 7 protein, Factor 7 chromogenic assay, BALB/c mice
Experimental: BALB/c mice were treated with ISIS 403102 ([…], target site 11336, incorporated herein as SEQ ID NO: 161). BALB/c mice were injected subcutaneously with 5 mg/kg, 10 mg/kg, 25 mg/kg, or 50 mg/kg of ISIS 403102 twice a week for 3 weeks. A control group of mice was injected subcutaneously with PBS twice a week for 3 weeks. After the treatment period, whole liver was collected for RNA and protein analysis, and plasma was collected for clotting analysis (PT/aPTT).
Plasma Factor 7 protein was measured using a Factor 7 chromogenic assay (Hyphen BioMed). […] Results are presented as percent inhibition of Factor 7, relative to control.

platelet factor-4 (PF-4) = experiment: Thrombus formation by real-time RT-PCR quantification of PF-4 in the FeCl3 induced venous thrombosis model; conditions: Example 16, BALB/c mice, vena cava
murine Factor 7 mRNA = experiment: Multiple dose pharmacokinetic assay: liver Factor 7 mRNA in mice; conditions: for % Inhibition: liver Factor 7 mRNA, mice, relative to PBS control
Experimental: The duration of action of multiple doses of ISIS 403102 on antisense inhibition of murine Factor 7 and clotting time was evaluated. In a first group of mice, 25 mg/kg of ISIS 403102 was injected subcutaneously as a single dose. Mice from the first group were sacrificed on days 1 and 3 after the single dose. In a second group of mice, 25 mg/kg of ISIS 403102 was administered subcutaneously twice a week for 1 week. Mice from the second group were sacrificed on day 3 after the last dose of ISIS 403102 was administered. In a third group of mice, 25 mg/kg of ISIS 403102 was administered subcutaneously twice a week for 2 weeks. Mice from the third group were sacrificed on day 3 after the last dose of ISIS 403102 was administered. In a fourth group of mice, 25 mg/kg of ISIS 403102 was administered subcutaneously twice a week for 3 weeks. Mice from the fourth group were sacrificed on days 2, 7, 14, 28, 42, and 56 after the last dose of ISIS 403102 was administered. A control group of 3 mice was injected with PBS in a single dose. Mice from the control group were sacrificed 1 day later. Mice in all groups were sacrificed by cervical dislocation following anesthesia with 150 mg/kg ketamine mixed with 10 mg/kg xylazine administered by intraperitoneal injection. Liver was harvested for RNA analysis and plasma was collected for clotting analysis (PT and aPTT) for mice in all groups.
RNA was extracted from liver tissue for quantitative RT-PCR analysis of Factor 7. Results are presented as percent inhibition of Factor 7, relative to PBS control. […] Inhibition increased through day 3 in the single dose treatment group. […] Inhibition increased through day 3 in the 2 dose treatment group.

Sequence: CCATAGAACAGCTTCACAGG (sugars from the 5' end e5 d10 e5, backbone and methylation of C not given here) [ISIS 403102]
- aPTT INR ([1]; BALB/c mice, 5 mg/kg, relative to PBS treated group): 1.05
- aPTT INR ([1]; BALB/c mice, 10 mg/kg, relative to PBS treated group): 1.04
- aPTT INR ([1]; BALB/c mice, 25 mg/kg, relative to PBS treated group): 1.09
- aPTT INR ([1]; BALB/c mice, 50 mg/kg, 1 dose, 1 day after last dose, relative to PBS group): 1.08 INR
- aPTT INR ([1]; BALB/c mice, 50 mg/kg, 1 dose, 3 days after last dose, relative to PBS group): 1.10 INR
- aPTT INR ([1]; BALB/c mice, 50 mg/kg, 2 doses, 3 days after last dose, relative to PBS group): 1.29 INR
- aPTT INR ([1]; BALB/c mice, 50 mg/kg, 4 doses, 3 days after last dose, relative to PBS group): 1.53 INR
- aPTT INR ([1]; BALB/c mice, 50 mg/kg, 6 doses, 2 days after last dose, relative to PBS group): 1.62 INR
- aPTT INR ([1]; BALB/c mice, 50 mg/kg, 6 doses, 7 days after last dose, relative to PBS group): 1.67 INR
- aPTT INR ([1]; BALB/c mice, 50 mg/kg, 6 doses, 14 days after last dose, relative to PBS group): 1.25 INR
- aPTT INR ([1]; BALB/c mice, 50 mg/kg, 6 doses, 28 days after last dose, relative to PBS group): 0.90 INR
- aPTT INR ([1]; BALB/c mice, 50 mg/kg, 6 doses, 42 days after last dose, relative to PBS group): 1.00 INR
- aPTT INR ([1]; BALB/c mice, 50 mg/kg, 6 doses, 56 days after last dose, relative to PBS group): 0.98 INR
- aPTT INR ([1]; BALB/c mice, 50 mg/kg, relative to PBS treated group): 1.16
- aPTT INR ([1]; BALB/c mice, single dose 50 mg/kg, day 1): 1.00
- aPTT INR ([1]; BALB/c mice, single dose 50 mg/kg, day 2): 1.05
- aPTT INR ([1]; BALB/c mice, single dose 50 mg/kg, day 3): 1.24
- aPTT INR ([1]; BALB/c mice, single dose 50 mg/kg, day 4): 1.15
- aPTT INR ([1]; BALB/c mice, single dose 50 mg/kg, day 6): 1.23
- aPTT INR ([1]; BALB/c mice, single dose 50 mg/kg, day 8): 1.18
- aPTT INR ([1]; BALB/c mice, single dose 50 mg/kg, day 12): 1.18
- aPTT INR ([1]; BALB/c mice, single dose 50 mg/kg, day 24): 1.02
- aPTT INR ([1]; BALB/c mice, single dose 50 mg/kg, day 56): 0.97
- aPTT compared to the control ([1]; Example 11, 5-50 mg/kg twice a week for 3 weeks): slightly prolonged
- aPTT ([1]; Example 13, 6 doses, from day 7 to day 56): decreased
- aPTT INR ([1]; single dose 50 mg/kg, day 4): 1.24
- aPTT INR ([1]; single dose 50 mg/kg, day 56): 0.97
- aPTT INR ([1]; single dose 50 mg/kg, starting value before the rise to day 4): 1.00
- % inhibition of murine Factor 7 protein (murine Factor 7 protein; 5 mg/kg subcutaneously twice a week for 3 weeks): 71%
- % inhibition of murine Factor 7 protein (murine Factor 7 protein; 10 mg/kg subcutaneously twice a week for 3 weeks): 88%
- % inhibition of murine Factor 7 protein (murine Factor 7 protein; 25 mg/kg subcutaneously twice a week for 3 weeks): 99%
- % inhibition of murine Factor 7 protein (murine Factor 7 protein; 50 mg/kg subcutaneously twice a week for 3 weeks): 99%
- reduction of murine Factor 7 protein over the PBS control (murine Factor 7 protein; 5-50 mg/kg twice a week for 3 weeks): dose-dependent reduction of murine Factor 7 protein
- PF-4 (percentage of PF-4 as compared to the PBS-treated control groups) (platelet factor-4 (PF-4); 1 mg/kg s.c. twice a week for 3 weeks): 120%
- PF-4 (percentage of PF-4 as compared to the PBS-treated control groups) (platelet factor-4 (PF-4); 3 mg/kg s.c. twice a week for 3 weeks): 112%
- Factor 7 inhibition (murine Factor 7 mRNA; 6 doses of 25 mg/kg, days 14, 28, 42 and 56 after last dose): declined progressively
- % Inhibition (murine Factor 7 mRNA; 25 mg/kg subcutaneously twice a week, 2 doses, 3 days after last dose): 86%
- % Inhibition (murine Factor 7 mRNA; 25 mg/kg subcutaneously twice a week, 4 doses, 3 days after last dose): 91%
- % Inhibition (murine Factor 7 mRNA; 25 mg/kg subcutaneously twice a week, 6 doses, 2 days after last dose): 83%
- % Inhibition (murine Factor 7 mRNA; 25 mg/kg subcutaneously twice a week, 6 doses, 7 days after last dose): 88%
- % Inhibition (murine Factor 7 mRNA; 25 mg/kg subcutaneously twice a week, 6 doses, 14 days after last dose): 64%
- % Inhibition (murine Factor 7 mRNA; 25 mg/kg subcutaneously twice a week, 6 doses, 28 days after last dose): 33%
- % Inhibition (murine Factor 7 mRNA; 25 mg/kg subcutaneously twice a week, 6 doses, 42 days after last dose): 5%
- % Inhibition (murine Factor 7 mRNA; 25 mg/kg subcutaneously twice a week, 6 doses, 56 days after last dose): 11%
- % Inhibition (murine Factor 7 mRNA; 25 mg/kg subcutaneously, 1 dose, 1 day after last dose): 44%
- % Inhibition (murine Factor 7 mRNA; 25 mg/kg subcutaneously, 1 dose, 3 days after last dose): 74%
- inhibition of Factor 7 mRNA (murine Factor 7 mRNA; single dose 25 mg/kg subcutaneously): inhibition of Factor 7 as early as day 1

— US9029337B2, “Modulation of factor 7 expression” (Isis Pharmaceuticals, Inc., priority 2007, dated 2015)
